Laboratory results: ChEMBL document CHEMBL4507296 (2021)

Experiments:
[1] = molecular target: Mitogen-activated protein kinase kinase kinase kinase 1 (Homo sapiens) (UniProt Q92918); conditions: Compound concentration 1000.0 nM
[2] = molecular target: Protein kinase C delta type (Homo sapiens) (UniProt Q05655); conditions: Compound concentration 1000.0 nM
[3] = system: Proto-oncogene tyrosine-protein kinase receptor Ret (Homo sapiens), P07949 [V804M]; conditions: Compound concentration 1000.0 nM
[4] = molecular target: Alpha-2C adrenergic receptor (Homo sapiens) (UniProt P18825); conditions: Compound concentration 10.0 uM
[5] = molecular target: Phosphatidylinositol 3-kinase catalytic subunit type 3 (Homo sapiens) (UniProt Q8NEB9); conditions: Compound concentration 1000.0 nM
[6] = molecular target: Phosphatidylinositol 4-phosphate 5-kinase type-1 gamma (Homo sapiens) (UniProt O60331); conditions: Compound concentration 1000.0 nM
[7] = system: Mast/stem cell growth factor receptor Kit (Homo sapiens), P10721 [D816V]; conditions: Compound concentration 1000.0 nM
[8] = molecular target: Interferon-induced, double-stranded RNA-activated protein kinase (Homo sapiens) (UniProt P19525); conditions: Compound concentration 1000.0 nM
[9] = molecular target: 5'-AMP-activated protein kinase catalytic subunit alpha-1 (Homo sapiens) (UniProt Q13131); conditions: Compound concentration 1000.0 nM
[10] = molecular target: Cyclin-dependent kinase-like 2 (Homo sapiens) (UniProt Q92772); conditions: Compound concentration 1000.0 nM
[11] = molecular target: Receptor tyrosine-protein kinase erbB-2 (Homo sapiens) (UniProt P04626); conditions: Compound concentration 1000.0 nM
[12] = molecular target: Muscarinic acetylcholine receptor M2 (Homo sapiens) (UniProt P08172); conditions: Compound concentration 10.0 uM
[13] = system: Mast/stem cell growth factor receptor Kit (Homo sapiens), P10721 [V559D,V654A]; conditions: Compound concentration 1000.0 nM
[14] = species on record: Rattus norvegicus; conditions: Compound concentration 10.0 uM
[15] = molecular target: Serine/threonine-protein kinase N2 (Homo sapiens) (UniProt Q16513); conditions: Compound concentration 1000.0 nM
[16] = GPCRScan assay: inhibition of GABA/PBR; parameters: species or system Rattus norvegicus; radioligand conc. used [nm] 0.3 – 2.0, parental cells brain tissue
[17] = molecular target: Mitogen-activated protein kinase 11 (Homo sapiens) (UniProt Q15759); conditions: Compound concentration 1000.0 nM
[18] = molecular target: Serine/threonine-protein kinase 36 (Homo sapiens) (UniProt Q9NRP7); conditions: Compound concentration 1000.0 nM
[19] = molecular target: Muscarinic acetylcholine receptor M3 (Homo sapiens) (UniProt P20309); conditions: Compound concentration 10.0 uM
[20] = molecular target: Beta-adrenergic receptor kinase 1 (Homo sapiens) (UniProt P25098); conditions: Compound concentration 1000.0 nM
[21] = molecular target: Proto-oncogene tyrosine-protein kinase Src (Homo sapiens) (UniProt P12931); conditions: Compound concentration 1000.0 nM
[22] = system: Tyrosine-protein kinase ABL1 (Homo sapiens), P00519 [H396P]; conditions: Compound concentration 1000.0 nM
[23] = molecular target: RAC-alpha serine/threonine-protein kinase (Homo sapiens) (UniProt P31749); conditions: Compound concentration 1000.0 nM
[24] = molecular target: SNF-related serine/threonine-protein kinase (Homo sapiens) (UniProt Q9NRH2); conditions: Compound concentration 1000.0 nM
[25] = molecular target: Serine/threonine-protein kinase STK11 (Homo sapiens) (UniProt Q15831); conditions: Compound concentration 1000.0 nM
[26] = molecular target: Rhodopsin kinase GRK1 (Homo sapiens) (UniProt Q15835); conditions: Compound concentration 1000.0 nM
[27] = molecular target: MAP kinase-interacting serine/threonine-protein kinase 2 (Homo sapiens) (UniProt Q9HBH9); conditions: Compound concentration 1000.0 nM
[28] = molecular target: Tyrosine-protein kinase receptor Tie-1 (Homo sapiens) (UniProt P35590); conditions: Compound concentration 1000.0 nM
[29] = system: Tyrosine-protein kinase ABL1 (Homo sapiens), P00519 [T315I]; conditions: Compound concentration 1000.0 nM
[30] = system: Epidermal growth factor receptor (Homo sapiens), P00533 [UNDEFINED MUTATION]; conditions: Compound concentration 1000.0 nM
[31] = molecular target: Bone morphogenetic protein receptor type-1B (Homo sapiens) (UniProt O00238); conditions: Compound concentration 1000.0 nM
[32] = molecular target: Serine/threonine-protein kinase MAK (Homo sapiens) (UniProt P20794); conditions: Compound concentration 1000.0 nM
[33] = molecular target: Protein kinase C eta type (Homo sapiens) (UniProt P24723); conditions: Compound concentration 1000.0 nM
[34] = molecular target: Serine/threonine-protein kinase Nek2 (Homo sapiens) (UniProt P51955); conditions: Compound concentration 1000.0 nM
[35] = system: Epidermal growth factor receptor (Homo sapiens), P00533 [L858R]; conditions: Compound concentration 1000.0 nM
[36] = system: Receptor-type tyrosine-protein kinase FLT3 (Homo sapiens), P36888 [N841I]; conditions: Compound concentration 1000.0 nM
[37] = molecular target: Phosphatidylinositol 4,5-bisphosphate 3-kinase catalytic subunit beta isoform (Homo sapiens) (UniProt P42338); conditions: Compound concentration 1000.0 nM
[38] = molecular target: Voltage-gated sodium channel (Na+ channel, site 2) (Rattus norvegicus, UniProt F1LQQ7+O08562+O88420+O88457+P04774+P04775+P08104+P15389+P15390+Q62968); experiment: Na+ channel (site 2) (rat) CEREP ligand profiling; format: protein assay; conditions: compound concentration 10 uM
[39] = molecular target: Serine/threonine-protein kinase 32B (Homo sapiens) (UniProt Q9NY57); conditions: Compound concentration 1000.0 nM
[40] = molecular target: Tyrosine-protein kinase JAK1 (Homo sapiens) (UniProt P23458); conditions: Compound concentration 1000.0 nM
[41] = molecular target: Serine/threonine-protein kinase DCLK2 (Homo sapiens) (UniProt Q8N568); conditions: Compound concentration 1000.0 nM
[42] = molecular target: Uncharacterized serine/threonine-protein kinase SBK3 (Homo sapiens) (UniProt P0C264); conditions: Compound concentration 1000.0 nM
[43] = molecular target: Tyrosine-protein kinase Fer (Homo sapiens) (UniProt P16591); conditions: Compound concentration 1000.0 nM
[44] = molecular target: Ephrin type-A receptor 3 (Homo sapiens) (UniProt P29320); conditions: Compound concentration 1000.0 nM

Sequence of Serine/threonine-protein kinase 36 (Homo sapiens) (Q9NRP7 whole entry): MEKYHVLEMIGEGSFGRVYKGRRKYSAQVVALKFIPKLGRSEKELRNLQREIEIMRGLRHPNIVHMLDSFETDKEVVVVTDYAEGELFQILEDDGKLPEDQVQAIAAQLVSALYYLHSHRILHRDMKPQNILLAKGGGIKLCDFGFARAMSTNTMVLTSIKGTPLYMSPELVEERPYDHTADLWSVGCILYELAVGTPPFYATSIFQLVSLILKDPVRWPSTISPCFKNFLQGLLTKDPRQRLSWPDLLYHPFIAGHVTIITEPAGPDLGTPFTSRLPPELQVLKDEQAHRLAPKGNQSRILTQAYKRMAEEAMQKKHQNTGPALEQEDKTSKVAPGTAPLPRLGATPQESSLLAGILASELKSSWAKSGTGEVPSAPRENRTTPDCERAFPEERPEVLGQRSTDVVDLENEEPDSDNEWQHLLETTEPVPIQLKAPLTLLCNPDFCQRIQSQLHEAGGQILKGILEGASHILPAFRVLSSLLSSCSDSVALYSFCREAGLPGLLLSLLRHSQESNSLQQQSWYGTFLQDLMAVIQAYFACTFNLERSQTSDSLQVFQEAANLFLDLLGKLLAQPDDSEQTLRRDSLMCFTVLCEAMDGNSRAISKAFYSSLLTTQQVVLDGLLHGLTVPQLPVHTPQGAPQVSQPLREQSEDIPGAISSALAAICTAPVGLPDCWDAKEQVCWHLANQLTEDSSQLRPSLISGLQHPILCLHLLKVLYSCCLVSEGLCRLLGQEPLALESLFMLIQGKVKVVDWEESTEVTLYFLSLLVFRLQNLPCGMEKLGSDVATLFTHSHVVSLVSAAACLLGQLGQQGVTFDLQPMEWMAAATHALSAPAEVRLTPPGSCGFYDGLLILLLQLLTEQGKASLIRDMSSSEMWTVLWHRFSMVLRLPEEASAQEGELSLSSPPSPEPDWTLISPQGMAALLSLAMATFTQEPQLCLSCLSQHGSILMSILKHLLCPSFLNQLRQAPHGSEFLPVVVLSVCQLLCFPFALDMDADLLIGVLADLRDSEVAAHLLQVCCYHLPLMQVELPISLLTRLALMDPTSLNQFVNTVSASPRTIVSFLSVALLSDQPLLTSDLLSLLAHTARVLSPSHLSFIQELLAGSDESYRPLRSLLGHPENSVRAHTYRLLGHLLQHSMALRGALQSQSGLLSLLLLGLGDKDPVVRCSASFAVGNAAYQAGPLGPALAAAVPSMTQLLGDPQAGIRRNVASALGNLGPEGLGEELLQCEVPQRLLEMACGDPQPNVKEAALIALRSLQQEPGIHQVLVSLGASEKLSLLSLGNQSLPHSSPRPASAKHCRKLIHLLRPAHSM
Sequence of Protein kinase C eta type (Homo sapiens) (P24723 whole entry): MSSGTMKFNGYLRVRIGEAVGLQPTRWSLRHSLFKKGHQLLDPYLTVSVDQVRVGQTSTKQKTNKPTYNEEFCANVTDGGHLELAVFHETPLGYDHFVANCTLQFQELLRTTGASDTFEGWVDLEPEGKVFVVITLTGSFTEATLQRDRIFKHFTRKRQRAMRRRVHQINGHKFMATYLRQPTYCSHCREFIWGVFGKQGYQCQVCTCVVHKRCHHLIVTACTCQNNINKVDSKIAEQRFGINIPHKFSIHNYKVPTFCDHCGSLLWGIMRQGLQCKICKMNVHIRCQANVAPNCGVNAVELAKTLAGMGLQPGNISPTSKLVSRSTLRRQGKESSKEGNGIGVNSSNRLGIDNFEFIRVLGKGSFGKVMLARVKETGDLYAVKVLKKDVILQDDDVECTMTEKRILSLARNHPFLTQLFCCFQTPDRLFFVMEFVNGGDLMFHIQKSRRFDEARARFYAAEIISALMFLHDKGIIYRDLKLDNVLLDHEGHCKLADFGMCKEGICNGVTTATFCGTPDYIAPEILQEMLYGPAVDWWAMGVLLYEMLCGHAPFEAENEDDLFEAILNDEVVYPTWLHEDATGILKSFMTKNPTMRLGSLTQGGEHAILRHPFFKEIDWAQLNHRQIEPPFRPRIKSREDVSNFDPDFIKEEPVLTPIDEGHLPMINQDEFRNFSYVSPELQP
Sequence of Uncharacterized serine/threonine-protein kinase SBK3 (Homo sapiens) (P0C264 whole entry): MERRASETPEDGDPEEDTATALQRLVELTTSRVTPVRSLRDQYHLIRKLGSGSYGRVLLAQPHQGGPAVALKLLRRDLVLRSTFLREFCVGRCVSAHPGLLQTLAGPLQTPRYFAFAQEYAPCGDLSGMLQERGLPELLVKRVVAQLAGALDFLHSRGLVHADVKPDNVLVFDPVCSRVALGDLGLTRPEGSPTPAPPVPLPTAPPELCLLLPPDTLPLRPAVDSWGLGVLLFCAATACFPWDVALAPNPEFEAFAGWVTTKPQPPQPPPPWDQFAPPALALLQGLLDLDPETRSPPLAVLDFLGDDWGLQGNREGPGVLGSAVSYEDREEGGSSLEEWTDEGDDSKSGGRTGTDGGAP
Sequence of Mitogen-activated protein kinase kinase kinase kinase 1 (Homo sapiens) (Q92918 whole entry, looked up): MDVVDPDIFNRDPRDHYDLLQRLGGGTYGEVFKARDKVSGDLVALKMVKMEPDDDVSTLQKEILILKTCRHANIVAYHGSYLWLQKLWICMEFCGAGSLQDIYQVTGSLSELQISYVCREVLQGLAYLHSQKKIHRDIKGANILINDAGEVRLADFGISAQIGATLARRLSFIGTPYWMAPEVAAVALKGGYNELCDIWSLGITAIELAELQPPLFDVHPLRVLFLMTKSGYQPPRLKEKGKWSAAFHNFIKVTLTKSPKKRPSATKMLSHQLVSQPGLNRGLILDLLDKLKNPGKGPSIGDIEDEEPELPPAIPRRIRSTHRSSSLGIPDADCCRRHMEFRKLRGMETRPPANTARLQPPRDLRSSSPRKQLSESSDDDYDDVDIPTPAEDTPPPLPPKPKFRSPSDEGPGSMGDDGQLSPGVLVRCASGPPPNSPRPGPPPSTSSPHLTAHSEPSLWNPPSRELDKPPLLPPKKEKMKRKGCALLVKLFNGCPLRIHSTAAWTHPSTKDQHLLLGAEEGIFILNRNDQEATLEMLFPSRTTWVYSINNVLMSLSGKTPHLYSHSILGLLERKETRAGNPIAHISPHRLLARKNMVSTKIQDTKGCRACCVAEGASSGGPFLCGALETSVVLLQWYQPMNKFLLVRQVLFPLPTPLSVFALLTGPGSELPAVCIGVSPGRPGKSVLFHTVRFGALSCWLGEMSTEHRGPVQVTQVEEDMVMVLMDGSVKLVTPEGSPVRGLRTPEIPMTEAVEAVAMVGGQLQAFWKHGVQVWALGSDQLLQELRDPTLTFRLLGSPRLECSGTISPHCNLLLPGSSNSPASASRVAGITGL
Sequence of Muscarinic acetylcholine receptor M3 (Homo sapiens) (P20309 whole entry, looked up): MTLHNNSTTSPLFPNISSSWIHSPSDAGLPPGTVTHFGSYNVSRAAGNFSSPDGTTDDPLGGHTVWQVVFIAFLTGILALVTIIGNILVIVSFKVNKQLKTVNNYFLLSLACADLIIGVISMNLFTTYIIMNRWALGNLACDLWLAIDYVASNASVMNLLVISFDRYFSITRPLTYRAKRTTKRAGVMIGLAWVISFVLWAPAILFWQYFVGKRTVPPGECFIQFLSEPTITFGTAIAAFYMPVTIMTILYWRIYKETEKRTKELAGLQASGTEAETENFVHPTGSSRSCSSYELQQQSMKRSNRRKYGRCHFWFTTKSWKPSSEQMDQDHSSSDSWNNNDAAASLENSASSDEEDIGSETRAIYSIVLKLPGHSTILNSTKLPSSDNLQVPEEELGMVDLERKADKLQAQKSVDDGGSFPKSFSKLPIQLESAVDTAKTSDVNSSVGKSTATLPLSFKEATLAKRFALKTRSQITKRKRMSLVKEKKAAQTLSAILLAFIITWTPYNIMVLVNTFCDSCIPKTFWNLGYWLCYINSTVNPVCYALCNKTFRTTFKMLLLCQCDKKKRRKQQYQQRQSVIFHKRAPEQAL
Sequence of Mast/stem cell growth factor receptor Kit (Homo sapiens), P10721 [V559D,V654A] (P10721 whole entry V559D/V654A): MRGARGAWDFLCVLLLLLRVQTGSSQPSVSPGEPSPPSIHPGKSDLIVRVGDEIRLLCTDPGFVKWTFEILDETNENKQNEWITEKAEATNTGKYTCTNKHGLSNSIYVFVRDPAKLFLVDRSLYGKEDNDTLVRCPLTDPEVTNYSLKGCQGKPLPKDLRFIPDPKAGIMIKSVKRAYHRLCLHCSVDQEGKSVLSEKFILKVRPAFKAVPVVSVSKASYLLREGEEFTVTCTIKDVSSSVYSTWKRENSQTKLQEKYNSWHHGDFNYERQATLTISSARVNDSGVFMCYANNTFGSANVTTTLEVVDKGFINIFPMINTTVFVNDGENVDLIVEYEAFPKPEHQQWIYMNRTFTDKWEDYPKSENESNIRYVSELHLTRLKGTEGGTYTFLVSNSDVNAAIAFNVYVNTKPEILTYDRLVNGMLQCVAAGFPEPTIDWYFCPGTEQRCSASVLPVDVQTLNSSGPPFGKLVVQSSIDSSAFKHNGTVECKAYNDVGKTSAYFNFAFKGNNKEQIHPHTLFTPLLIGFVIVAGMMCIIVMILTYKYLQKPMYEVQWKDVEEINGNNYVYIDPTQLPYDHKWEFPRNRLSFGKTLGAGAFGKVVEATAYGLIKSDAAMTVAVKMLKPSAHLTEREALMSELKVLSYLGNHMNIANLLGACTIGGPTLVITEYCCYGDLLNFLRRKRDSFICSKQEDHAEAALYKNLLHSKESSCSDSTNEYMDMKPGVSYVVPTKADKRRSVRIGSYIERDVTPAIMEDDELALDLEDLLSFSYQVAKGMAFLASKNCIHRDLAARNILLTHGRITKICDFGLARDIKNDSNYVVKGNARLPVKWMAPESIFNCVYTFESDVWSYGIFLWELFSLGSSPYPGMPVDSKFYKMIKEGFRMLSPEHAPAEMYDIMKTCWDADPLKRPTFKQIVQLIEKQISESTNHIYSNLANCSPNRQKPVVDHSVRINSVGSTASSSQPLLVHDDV
Sequence of Mast/stem cell growth factor receptor Kit (Homo sapiens), P10721 [D816V] (P10721 whole entry D816V): as the sequence (P10721 whole entry V559D/V654A) above, with D559V, A654V, D816V counted along it

## C[C@H](c1ccc(F)cc1)N(Cc1cccc(C(=O)O)c1)C(=O)c1cnc2ccccc2c1 [PF-05105679]
[1]
  residual activity: 100%
[2]
  residual activity: 100%
[3]
  residual activity: 100%
[4]
  inhibition: 3.68%
[5]
  residual activity: 100%
[6]
  residual activity: 100%
[7]
  residual activity: 100%
[8]
  residual activity: 100%
[9]
  residual activity: 100%
[10]
  residual activity: 100%
[11]
  residual activity: 100%
[12]
  inhibition: 12.6%
[13]
  residual activity: 100%
[14]
  inhibition: 70%
[15]
  residual activity: 86%
[16]
  Ki: 1020 nM
  pKi: 5.99
[17]
  residual activity: 100%
[18]
  residual activity: 100%
[19]
  inhibition: -7.68%
[20]
  residual activity: 80%
[21]
  residual activity: 100%
[22]
  residual activity: 100%
[23]
  residual activity: 100%
[24]
  residual activity: 96%
[25]
  residual activity: 100%
[26]
  residual activity: 100%
[27]
  residual activity: 74%
[28]
  residual activity: 93%
[29]
  residual activity: 75%
[30]
  residual activity: 100%
[31]
  residual activity: 95%
[32]
  residual activity: 100%
[33]
  residual activity: 75%
[34]
  residual activity: 94%
[35]
  residual activity: 100%
[36]
  residual activity: 62%
[37]
  residual activity: 100%
[38]
  inhibition at 10 µM: 32% (not active)
[39]
  residual activity: 97%
[40]
  residual activity: 100%
[41]
  residual activity: 100%
[42]
  residual activity: 100%
[43]
  residual activity: 100%
[44]
  residual activity: 85%
